Results reported in article PMC11943355, “Identification of a Novel Antagonist of BRS-3 from Natural Products and Its Protective Effects Against H2O2-Induced Cardiomyocyte Injury” (International Journal of Molecular Sciences, 2025).

Legend:
Type in all cases: cell-based
[1] = target: T1, BRS-3 (bombesin receptor subtype-3, BB3), human (Homo sapiens, UniProt P32247); assay: inhibition of […] MK-5046-induced IP1 accumulation (HTRF) in H1299-hBRS-3 stable cells
T1 construct: gene BRS3
T1 sequence (P32247 1-399): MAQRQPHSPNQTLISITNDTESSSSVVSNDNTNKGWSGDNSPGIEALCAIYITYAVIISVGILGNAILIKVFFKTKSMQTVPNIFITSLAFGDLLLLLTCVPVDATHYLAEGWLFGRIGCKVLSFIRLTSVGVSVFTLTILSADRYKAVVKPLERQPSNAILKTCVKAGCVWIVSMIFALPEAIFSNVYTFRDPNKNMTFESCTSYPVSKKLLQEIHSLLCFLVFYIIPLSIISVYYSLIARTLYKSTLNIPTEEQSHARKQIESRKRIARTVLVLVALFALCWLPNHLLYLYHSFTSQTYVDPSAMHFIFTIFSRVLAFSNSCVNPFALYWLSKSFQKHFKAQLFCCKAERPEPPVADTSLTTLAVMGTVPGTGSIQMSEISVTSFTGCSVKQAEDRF

[2] = target: T2, BRS-3 (bombesin receptor subtype-3, BB3), murine (Mus musculus, UniProt O54798); assay: inhibition of […] MK-5046-induced Ca2+ mobilization (FLIPR) in HEK293-mBRS-3 stable cells; also DMR (IC50 […])
T2 construct: gene Brs3
T2 sequence (O54798 1-399): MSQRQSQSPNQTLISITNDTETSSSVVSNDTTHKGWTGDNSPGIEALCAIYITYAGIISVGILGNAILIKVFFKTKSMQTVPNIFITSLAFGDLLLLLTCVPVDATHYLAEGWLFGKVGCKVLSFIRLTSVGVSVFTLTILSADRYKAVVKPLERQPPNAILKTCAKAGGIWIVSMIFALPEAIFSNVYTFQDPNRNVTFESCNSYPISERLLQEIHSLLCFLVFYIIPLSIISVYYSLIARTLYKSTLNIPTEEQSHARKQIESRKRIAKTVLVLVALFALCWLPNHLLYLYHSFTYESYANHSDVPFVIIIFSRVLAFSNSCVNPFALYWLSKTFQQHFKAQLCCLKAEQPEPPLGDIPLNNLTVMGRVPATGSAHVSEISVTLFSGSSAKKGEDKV

[3] = target: T2, BRS-3 (bombesin receptor subtype-3, BB3), murine; assay: reference peptide antagonist; inhibition of […] MK-5046-induced Ca2+ mobilization (FLIPR) in HEK293-mBRS-3 stable cells

In the case of `CC(C)=CCc1c(O)ccc(-c2coc3cc(O)cc(O)c3c2=O)c1O` [LIA, licoisoflavone A], the IC50 [1] is reported as 841 nM and the IC50 [2] is reported as 706 nM.

For Bantag-1, the IC50 [3] was 2.32 nM.
